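Growth conditions: 96-well plates. Treatment: test compound, 48 hours, 5 concentrations. Analysis: linear interpolation between bracketing concentrations; unreached endpoints set to highest concentration. Abbreviation: GI50, concentration required for 50% inhibition of growth.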 Activity calls are given as the source filed them. No stated cut-off is given here; in the data, active = GI50 up to about 1.1 µM and inactive = higher. A value given as a limit tells only on which side of the number the result lay.

Holding throughout (test): inhibition of tumour cell growth, NCI panel, 48 h
The test system of assay [1] is A549.
Assay [2] has as its system COLO 205.
Assay [3] concerns HCT-15.
Assay [4] concerns HOP-62.
Assay [5] has as its system HT-29.
Assay [6] deals with K562.
For assay [7], the system named is LOX IMVI.
In assay [8] the test system is NCI-H23.
Assay [9] deals with OVCAR-8.
For assay [10], the system named is RPMI-8226.
Assay [11] concerns RXF 393.
For assay [12], the system named is SF-539.
Assay [13] deals with SK-MEL-5.
For assay [14], the system named is SN12C.
For assay [15], the system named is SNB-19.
Assay [16] relates to SNB-75.
Assay [17] deals with A498.
Assay [18] relates to CAKI-1.
Assay [19] concerns NCI-H226.
Assay [20] concerns NCI-H522.

As for `Cc1cc(O)nc(NN2C(Cl)C(=O)C2c2cccc(Cl)c2)n1` (stereo not drawn), the GI50 is 47.8 µM (inactive) in [1]; > 10 µM (inactive) in assay [2]; 17.4 µM in [3]; 27.1 µM (inactive) in assay [4]; 23.4 µM (inactive) in [5]; 17.6 µM (inactive) in assay [6]. The GI50 was 14.4 µM (inactive) in assay [7]; 20.1 µM (inactive) in assay [8]; 31.1 µM (inactive) in assay [9]; 12.7 µM (inactive) in assay [10]; 8.18 µM (inactive) in assay [11]; 17.2 µM (inactive) in assay [12]. For the same compound, the GI50 is 18.4 µM (inactive) in [13], 20.5 µM (inactive) in assay [14], 27.9 µM (inactive) in assay [15] and 20.8 µM (inactive) in assay [16].
As for `COC(=O)Cc1c(/C=C/C(C)(C)n2cnc(CCN3C(=O)CCC3=O)c2)[nH]c2ccccc12`, the GI50 was > 100 µM (inactive) in [17]; 94.6 µM (inactive) in assay [1]; > 100 µM (inactive) in assay [18]; > 100 µM (inactive) in assay [2]; > 100 µM in assay [3]; 35.4 µM (inactive) in assay [5]. In addition, the GI50 in assay [6] is > 100 µM (inactive); in assay [7], > 100 µM (inactive); in [19], > 100 µM (inactive); in [8], > 100 µM (inactive); in assay [20] it was 43.4 µM (inactive); in assay [9], > 100 µM (inactive). The GI50 is 36.3 µM (inactive) in assay [11]; > 100 µM (inactive) in [12]; 66.8 µM (inactive) in assay [13]; > 100 µM (inactive) in assay [14]; > 100 µM (inactive) in [15]; 50.4 µM (inactive) in assay [16].
Regarding `COc1cc(C2S/C(=C/c3ccccc3)C(=O)N2c2ccccc2Cl)cc(OC)c1OC` (stereo not drawn), the GI50 in assay [17] is 43.4 µM (inactive); in assay [1] it was 37.1 µM (inactive); in assay [18], 32.6 µM (inactive); in assay [2] it was 33.3 µM (inactive); in [3], 27.5 µM; in assay [4], 31.3 µM (inactive). Besides, the GI50 is 19.1 µM (inactive) in [5]; 18.7 µM (inactive) in [7]; > 100 µM (inactive) in assay [19]; 24.3 µM (inactive) in assay [8]; 12.4 µM (inactive) in [20]; 19.3 µM (inactive) in [9]. Besides, the GI50 is 9.53 µM (inactive) in assay [11]; 20.7 µM (inactive) in assay [13]; 21.4 µM (inactive) in assay [14]; 35.5 µM (inactive) in [15]; 6.21 µM (inactive) in assay [16].
Take `C[C@H](N[C@H]1CCC[C@]1(O)C#Cc1ccc2c(c1)OCO2)c1ccccc1`: the GI50 is > 25 µM (inactive) in [17]; > 25 µM (inactive) in assay [1]; > 25 µM (inactive) in assay [18]; 9.25 µM (inactive) in assay [2]; > 25 µM in [3]; > 25 µM (inactive) in assay [4]. Moreover, the GI50 is > 25 µM (inactive) in assay [5]; 11.7 µM (inactive) in [6]; > 25 µM (inactive) in [7]; > 25 µM (inactive) in assay [19]; > 25 µM (inactive) in assay [8]; > 25 µM (inactive) in assay [9]. For the same compound, the GI50 is 8.89 µM (inactive) in assay [10]; > 25 µM (inactive) in [11]; 22.6 µM (inactive) in assay [13]; > 25 µM (inactive) in assay [15]; 15.4 µM (inactive) in assay [16].
Regarding `C/C(CC(=O)Nc1ccccc1)=N\NC(N)=S`, the GI50 in assay [1], in assay [2], in assay [4], in [5], in assay [6] and in [7] was > 100 µM (inactive) in each case. Further, the GI50 in assay [19], in assay [8], in assay [20], in assay [9], in assay [10] and in assay [11] was > 100 µM (inactive) throughout. Also, the GI50 in [12], in assay [13] and in [16] was > 100 µM (inactive) in each case.
`Cc1ccc(S(=O)(=O)NNC(=O)Nc2ccc(Cl)cc2)cc1`: the GI50 in assay [17] is > 100 µM (inactive); in assay [1] it was > 100 µM (inactive); in assay [18], > 100 µM (inactive); in assay [2] it was > 100 µM (inactive); in [3], > 100 µM; in [4], > 100 µM (inactive). The GI50 was > 100 µM (inactive) in [5]; 4.26 µM (inactive) in assay [6]; > 100 µM (inactive) in [19]; > 100 µM (inactive) in assay [8]; > 100 µM (inactive) in assay [20]; > 100 µM (inactive) in [9]. For the same compound, the GI50 in [10] is > 100 µM (inactive); in [11], > 100 µM (inactive); in assay [12], 54 µM (inactive); in [13] it was 53 µM (inactive); in [14], > 100 µM (inactive); in assay [15], > 100 µM (inactive). Also, the GI50 in assay [16] is 25.5 µM (inactive).
As for `Clc1nc(-[n+]2ccc(-c3ccncc3)cc2)nc(Nc2ccccc2)c1Cl`, the GI50 in assay [17] was > 100 µM (inactive); in [1] it was > 100 µM (inactive); in assay [2] it was > 100 µM (inactive); in assay [3] it was > 100 µM; in assay [4] it was > 100 µM (inactive); in assay [5], > 100 µM (inactive). Further, the GI50 in assay [6] was 52.1 µM (inactive); in assay [7] it was 50.4 µM (inactive); in assay [19], > 100 µM (inactive); in assay [8], > 100 µM (inactive); in assay [10] it was 57.9 µM (inactive); in assay [11], > 100 µM (inactive). For the same compound, the GI50 in assay [12], in [13], in [14] and in assay [15] was > 100 µM (inactive) throughout.
On to `COc1ccc(NC(C)=O)cc1N1C(=O)/C(=C\c2ccccc2)SC1c1cc(OC)c(OC)c(OC)c1` (stereo not drawn), for which the GI50 in [17] is 60 µM (inactive); in assay [1], 30.1 µM (inactive); in [18], 34.7 µM (inactive); in assay [2], 26.6 µM (inactive); in assay [3], 21.7 µM; in assay [4], 39.2 µM (inactive). Also, the GI50 in assay [5] is 32.4 µM (inactive); in assay [6] it was 33.7 µM (inactive); in assay [7], 14.9 µM (inactive); in [19] it was 24 µM (inactive); in [8], 36.5 µM (inactive); in assay [20] it was 13.8 µM (inactive). The GI50 in assay [9] is 23.1 µM (inactive); in assay [10], 34 µM (inactive); in [11], 27 µM (inactive); in [12], 22.6 µM (inactive); in [13], 12 µM (inactive); in assay [14], 80.5 µM (inactive). Also, the GI50 in assay [15] is 34 µM (inactive).
Regarding `O=Cc1ccccc1CCn1c(=O)c2cc3c(=O)n(CCc4ccccc4C=O)c(=O)c3cc2c1=O`, the GI50 was > 100 µM (inactive) in assay [17]; > 100 µM (inactive) in assay [1]; > 100 µM in assay [3]; > 100 µM (inactive) in assay [5]; > 100 µM (inactive) in [6]; > 100 µM (inactive) in [7]. The GI50 in [19], in assay [8], in [20], in assay [9], in assay [11] and in assay [12] was > 100 µM (inactive) each time. For the same compound, the GI50 in assay [13], in assay [14], in [15] and in [16] was > 100 µM (inactive) in each case.
